Assay results from patent US20140303092A1 (CHIMERIX, INC., priority 2011, published 2014).

Assay: Study HDP-CDV-201: safety and tolerability (adverse events, laboratory abnormalities, discontinuations)
Type: in vivo, human (adult allogeneic HSCT recipients)
Conditions: 40 mg QW
Method: Clinical Studies of HDP-CDV were performed and described in detail in the following Examples. For example, HDP-CDV-201 is a placebo-controlled, dose-escalating trial in HSCT CMV (R+) recipients, evaluating the ability of HDP-CDV to prevent or control CMV infection was carried out. Five cohorts were established in which participants or subjects received either placebo or the HDP-CDV orally, in doses ranging from 40 mg weekly (QW) to 200 mg twice weekly (BIW). Subjects who were post-HSCT were enrolled at the time of engraftment and randomized to HDP-CDV or placebo (3 to 1 ratio) and received blinded therapy until approximately 100 day post-transplantation. HDP-CDV doses were 40 mg QW, 100 mg QW, 200 mg QW, 200 mg BIW and 100 mg BIW. Escalation to the next dose was decided by the data monitoring committee after review of the safety data from the previous Cohort. Subjects who developed CMV disease or CMV infection requiring pre-emptive therapy with local standard of care were discontinued from blinded therapy and followed for 4 weeks. Subjects who completed treatment with blinded therapy were followed for 8 weeks post-therapy.
Data from Study HDP-CDV-201 also provided characterization of the safety and tolerability profile of HDP-CDV when administered for the prevention or control of CMV infection in high risk (R^+) post-HSCT adult subjects.
The Safety population (SAFETY) included all randomized subjects who took at least one dose of study treatment. This population was used to summarize safety outcomes based on the treatment actually received, in cases where a subject was treated contrary to the randomization schedule.
The safety and tolerability profile of HDP-CDV, including subject demographics and Baseline characteristics; the AE profile; and laboratory abnormalities of interest were analyzed in the cohorts followed in this investigation.
Subjects completing the treatment period received a full course of study medication; those completing the entire study attended visits through 8 weeks of follow up. Subjects who discontinued treatment may have done so for protocol specified reasons (e.g. development of clinically significant CMV infection requiring preemptive treatment with excluded anti-CMV medications) or for other reasons (e.g., withdrawal, adverse events, loss to follow-up). The disposition of subjects in Study HDP-CDV-201 during the double-blind, placebo-controlled treatment period (through Week 11) is listed by dosing Cohort in TABLE 23.
Adverse events were examined by severity to ensure that all safety signals were identified in this study population. Because of the frequency of events in HSCT recipients, particular attention was given to evaluation of Grade 3 […], 4 (severe), and 5 (fatal) adverse events.
Only those preferred terms for which at least one Grade 3 or higher event was experienced in any treatment group are listed. Cytomegalovirus-related AEs are excluded from this analysis.
HDP-CDV is a lipid conjugate of CDV. Because CDV is known to have adverse effects on renal function and bone marrow, decreased GFR and persistent neutropenia were identified as AEs of special interest. Key renal and hematological (TABLE 30) laboratory parameters were measured and listed below by Study HDP-CDV-201 treatment groups. TABLE 30 includes abnormal levels of serum creatinine, neutrophils, platelets, WBCs, and hemoglobin and includes data at Screening and during the treatment period.
A common metric for unit based dosing of medications is by weight (mg/kg). When the distribution of weights was examined for all subjects participating in the study, the median was 78 kg and the lower 25th percentile weight was approximately 65 kg, which translates to a cut-off of ˜3 mg/kg for a 200 mg total weekly dose. Based upon this approach, a cut-off of 3 mg/kg was used to assess the frequency of diarrhea and associated GI AEs reported for the subjects in Cohorts 3 or 4a (TABLE 40).

## CCCCCCCCCCCCCCCCOCCCOP(=O)(O)COC(CO)Cn1ccc(N)nc1=O (stereo not drawn) [HDP-CDV]
  TEAE ALT increased, Frequency: 2 (8.0%)
  TEAE ALT increased, Grade 2: 1 (4.0%)
  TEAE ALT increased, Grade 3: 1 (4.0%)
  TEAE ALT increased, Grade 4: 0
  TEAE ALT increased, Grade 5: 0
  TEAE AML, Recurrent, Frequency: 3 (12.0%)
  TEAE AML, Recurrent, Grade 2: 0
  TEAE AML, Recurrent, Grade 3: 0
  TEAE AML, Recurrent, Grade 4: 1 (4.0%)
  TEAE AML, Recurrent, Grade 5: 0
  TEAE AST increased, Frequency: 1 (4.0%)
  TEAE AST increased, Grade 2: 0
  TEAE AST increased, Grade 3: 1 (4.0%)
  TEAE AST increased, Grade 4: 0
  TEAE AST increased, Grade 5: 0
  TEAE Abdominal pain, Frequency: 4 (16.0%)
  TEAE Abdominal pain, Grade 2: 0
  TEAE Abdominal pain, Grade 3: 1 (4.0%)
  TEAE Abdominal pain, Grade 4: 0
  TEAE Abdominal pain, Grade 5: 0
  TEAE Acute GVHD, Frequency: 6 (24.0%)
  TEAE Acute GVHD, Grade 2: 2 (8.0%)
  TEAE Acute GVHD, Grade 3: 1 (4.0%)
  TEAE Arthralgias, Frequency: 0
  TEAE Arthralgias, Grade 2: 0
  TEAE Arthralgias, Grade 3: 0
  TEAE Arthralgias, Grade 4: 0
  TEAE Arthralgias, Grade 5: 0
  TEAE Back Pain, Frequency: 0
  TEAE Back Pain, Grade 2: 0
  TEAE Back Pain, Grade 3: 0
  TEAE Back Pain, Grade 4: 0
  TEAE Back Pain, Grade 5: 0
  TEAE Decreased appetite, Frequency: 4 (16.0%)
  TEAE Decreased appetite, Grade 2: 1 (4.0%)
  TEAE Decreased appetite, Grade 3: 1 (4.0%)
  TEAE Decreased appetite, Grade 4: 0
  TEAE Decreased appetite, Grade 5: 0
  TEAE Diarrhea, Frequency: 3 (12.0%)
  TEAE Diarrhea, Grade 2: 2 (8.0%)
  TEAE Diarrhea, Grade 3: 0
  TEAE Diarrhea, Grade 4: 0
  TEAE Diarrhea, Grade 5: 0
  TEAE Fatigue, Frequency: 1 (4.0%)
  TEAE Fatigue, Grade 2: 0
  TEAE Fatigue, Grade 3: 0
  TEAE Fatigue, Grade 4: 0
  TEAE Fatigue, Grade 5: 0
  TEAE GGT Increased, Frequency: 0
  TEAE GGT Increased, Grade 2: 0
  TEAE GGT Increased, Grade 3: 0
  TEAE GGT Increased, Grade 4: 0
  TEAE GGT Increased, Grade 5: 0
  TEAE Generalized oedema, Frequency: 1 (4.0%)
  TEAE Generalized oedema, Grade 2: 1 (4.0%)
  TEAE Generalized oedema, Grade 3: 0
  TEAE Generalized oedema, Grade 4: 0
  TEAE Generalized oedema, Grade 5: 0
  TEAE Hyperbilirubinaemia, Frequency: 1 (4.0%)
  TEAE Hyperbilirubinaemia, Grade 2: 0
  TEAE Hyperbilirubinaemia, Grade 3: 0
  TEAE Hyperbilirubinaemia, Grade 4: 1 (4.0%)
  TEAE Hyperbilirubinaemia, Grade 5: 0
  TEAE Hyperglycaemia, Frequency: 1 (4.0%)
  TEAE Hyperglycaemia, Grade 2: 1 (4.0%)
  TEAE Hyperglycaemia, Grade 3: 0
  TEAE Hyperglycaemia, Grade 4: 0
  TEAE Hyperglycaemia, Grade 5: 0
  TEAE Hyperkalemia, Frequency: 1 (4.0%)
  TEAE Hyperkalemia, Grade 2: 0
  TEAE Hyperkalemia, Grade 3: 0
  TEAE Hyperkalemia, Grade 4: 0
  TEAE Hyperkalemia, Grade 5: 0
  TEAE Hypocalcaemia, Frequency: 1 (4.0%)
  TEAE Hypocalcaemia, Grade 2: 1 (4.0%)
  TEAE Hypocalcaemia, Grade 3: 0
  TEAE Hypocalcaemia, Grade 4: 0
  TEAE Hypocalcaemia, Grade 5: 0
  TEAE Hypokalaemia, Frequency: 4 (16.0%)
  TEAE Hypokalaemia, Grade 2: 0
  TEAE Hypokalaemia, Grade 3: 2 (8.0%)
  TEAE Hypokalaemia, Grade 4: 0
  TEAE Hypokalaemia, Grade 5: 0
  TEAE Hyponatraemia, Frequency: 3 (12.0%)
  TEAE Hyponatraemia, Grade 2: 1 (4.0%)
  TEAE Hyponatraemia, Grade 3: 1 (4.0%)
  TEAE Hyponatraemia, Grade 4: 0
  TEAE Hyponatraemia, Grade 5: 0
  TEAE LFT Abnormal, Frequency: 0
  TEAE LFT Abnormal, Grade 2: 0
  TEAE LFT Abnormal, Grade 3: 0
  TEAE LFT Abnormal, Grade 4: 0
  TEAE LFT Abnormal, Grade 5: 0
  TEAE Leukocytosis, Frequency: 1 (4.0%)
  TEAE Leukocytosis, Grade 2: 0
  TEAE Leukocytosis, Grade 3: 0
  TEAE Leukocytosis, Grade 4: 0
  TEAE Leukocytosis, Grade 5: 0
  TEAE Nausea, Frequency: 6 (24.0%)
  TEAE Nausea, Grade 2: 2 (8.0%)
  TEAE Nausea, Grade 3: 1 (4.0%)
  TEAE Nausea, Grade 4: 0
  TEAE Nausea, Grade 5: 0
  TEAE Neutropenia, Frequency: 2 (8.0%)
  TEAE Neutropenia, Grade 2: 0
  TEAE Neutropenia, Grade 3: 2 (8.0%)
  TEAE Neutropenia, Grade 4: 0
  TEAE Neutropenia, Grade 5: 0
  TEAE Pneumonia, Frequency: 1 (4.0%)
  TEAE Pneumonia, Grade 2: 0
  TEAE Pneumonia, Grade 3: 0
